Measurements reported in ChEMBL document CHEMBL3751852, “New mannose derivatives: The tetrazole analogue of mannose-6-phosphate as angiogenesis inhibitor” (2016).
Activity calls are given as the source filed them. The rule behind the calls is not given here.

Test system: Chorioallantoic membrane
Assay: Antiangiogenic activity in chicken chorioallantoic membrane assessed as area of neovascularization at 60 mg/ml administered on 7th embryonic day incubated for 4 days by microscopy (reference value: 100%)
Format: functional, Gallus gallus

SMILES	Activity [%]	Activity (Gallus gallus)
CO[C@H]1O[C@H](COP(=O)(O)O)[C@@H](O)[C@H](O)[C@@H]1O	43	
CO[C@H]1O[C@H](CCC(=O)O)[C@@H](O)[C@H](O)[C@@H]1O	70	
CO[C@H]1O[C@H](CS(=O)(=O)c2ccccc2)[C@@H](O)[C@H](O)[C@@H]1O		inactive
CO[C@H]1O[C@H](CCP(=O)(O)O)[C@@H](O)[C@H](O)[C@@H]1O	138	
CO[C@H]1O[C@H](Cc2nnn[nH]2)[C@@H](O)[C@H](O)[C@@H]1O	68	
